Earlier results in US20080293820A1, “METHODS FOR IMPROVING PHYSICAL FUNCTION IN FIBROMYALGIA” (Cypress Bioscience, Inc., priority 2007, published 2008).

Test system: patients with FMS
Settings: open-label; cited from earlier work

## COc1ccc(C(CN(C)C)C2(O)CCCCC2)cc1 (centres unmarked) [venlafaxine]
  completing patients with a positive response (50% or greater improvement in two different measurements of overall pain): Six of 11
  insomnia requiring adjunctive medical therapy, completing patients: 3 of 11
